Reference: patent US20240409585A1, “MACROCYCLIC IMMUNOMODULATORS” (priority 2021, published 2024)
Numbered stars: 1 amine (or outer) side, 2 acyl side, 3 side chain; on linkers, the order of the positions; unused ones are H or OH. Bridge positions count the residues as written; N and C are the ends. Square brackets hold non-standard residues; d marks the D form. Peptide text beside a SMILES is read from it. * marks the point of attachment. Phe(4-COOH) = N[C@@H](Cc1ccc(C(=O)O)cc1)C(=O)O; Bip = N[C@@H](Cc1ccc(-c2ccccc2)cc1)C(=O)O; Phe(3-Me) = Cc1cccc(C[C@H](N)C(=O)O)c1; βAsp = O=C(O)[C@H](CC(=O)[*:2])N[*:1]; aIle = CC[C@@H](C)[C@H](N)C(=O)O; 4Pal = N[C@@H](Cc1ccncc1)C(=O)O; Cha = N[C@@H](CC1CCCCC1)C(=O)O; Cit = NC(=O)NCCC[C@H](N)C(=O)O; Carboxymethyl = O=C(O)C*; NMeA = CN[C@@H](C)C(=O)O; Orn = NCCC[C@H](N)C(=O)O; Pra = C#CC[C@H](N)C(=O)O; Dab = NCC[C@H](N)C(=O)O; Dap = NC[C@H](N)C(=O)O

molecular target: T1, PE-labeled human PD-L1-Ig binding to Jurkat cell line over-expressing human PD-1 (Jurkat-PD-1) (Homo sapiens, UniProt Q15116); experiment: Jurkat-PD-1 Cell Binding High-Content Screening Assay (CBA): Method 1; settings: Jurkat-hPD-1 cells, PE-labeled PD-L1-Ig 20 nM final; read-out: Jurkat HPDL1 PD1 IC50 (uM) (Method 1)
T1 construct: expressed in transfected cells; host or cells: Jurkat
T1 sequence (Q15116 25-288): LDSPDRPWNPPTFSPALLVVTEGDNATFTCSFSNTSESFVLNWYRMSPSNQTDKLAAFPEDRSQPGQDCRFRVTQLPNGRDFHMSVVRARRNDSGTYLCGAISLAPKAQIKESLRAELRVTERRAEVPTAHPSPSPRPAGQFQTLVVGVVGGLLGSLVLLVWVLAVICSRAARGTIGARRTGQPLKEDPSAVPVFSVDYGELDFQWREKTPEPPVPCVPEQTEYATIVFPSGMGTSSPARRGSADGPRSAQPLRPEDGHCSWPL

Row | SMILES | IC50
1 | CC[C@@H](C)[C@@H]1NC(=O)[C@H](Cc2ccc(-c3ccccc3)cc2)NC(=O)[C@H](CC(C)C)NC(=O)[C@H](Cc2cccc(C)c2)NC(=O)[C@H](CC(=O)O)NC(=O)[C@H](Cc2ccc(C(=O)O)cc2)NC(=O)[C@H](Cc2ccc(OCC(=O)O)cc2)NC(=O)CSC[C@@H](C(N)=O)NC(=O)[C@H](CO)NC(=O)[C@H](C(C)C)NC(=O)[C@H](CC(C)C)NC(=O)[C@H](CC(N)=O)NC(=O)[C@@H](CC(C)C)NC(=O)[C@H](C)N(C)C1=O [Compound 1639] ({CH2CO}-Y(Carboxymethyl)[Phe(4-COOH)]D[Phe(3-Me)]L[Bip][aIle][NMeA][dL]NLVSC-NH2; thioether N-14) | 0.06 µM
2 | Cc1cccc(C[C@@H]2NC(=O)[C@H](CC(=O)O)NC(=O)[C@H](Cc3ccncc3)NC(=O)[C@H](Cc3ccc(OCC(=O)O)cc3)NC(=O)CSC[C@@H](C(N)=O)NC(=O)[C@H](CO)NC(=O)[C@H](C(C)C)NC(=O)[C@H](CC(C)C)NC(=O)[C@H](CC(N)=O)NC(=O)[C@@H](CC(C)C)NC(=O)[C@H](C)N(C)C(=O)[C@H](CCCNC(N)=O)NC(=O)[C@H](Cc3ccc(-c4ccccc4)cc3)NC(=O)[C@H](CC(C)C)NC2=O)c1 [Compound 1642] ({CH2CO}-Y(Carboxymethyl)[4Pal]D[Phe(3-Me)]L[Bip][Cit][NMeA][dL]NLVSC-NH2; thioether N-14) | 0.18 µM
3 | Cc1cccc(C[C@@H]2NC(=O)[C@H](CC(=O)O)NC(=O)[C@H](Cc3ccc(OCC(=O)O)cc3)NC(=O)[C@H](CN)NC(=O)CSC[C@@H](C(N)=O)NC(=O)[C@H](CO)NC(=O)[C@H](C(C)C)NC(=O)[C@H](CC(C)C)NC(=O)[C@H](CC(N)=O)NC(=O)[C@@H](CC(C)C)NC(=O)[C@H](C)N(C)C(=O)[C@H](CCCNC(N)=O)NC(=O)[C@H](Cc3ccc(-c4ccccc4)cc3)NC(=O)[C@H](CC(C)C)NC2=O)c1 [Compound 1644] ({CH2CO}-[Dap]Y(Carboxymethyl)D[Phe(3-Me)]L[Bip][Cit][NMeA][dL]NLVSC-NH2; thioether N-14) | 0.06 µM
4 | C#CC[C@H](NC(=O)C[C@H](NC(=O)[C@@H]1CSCC(=O)N[C@@H](Cc2ccc(OCC(=O)O)cc2)C(=O)N[C@@H](Cc2ccncc2)C(=O)N[C@@H](CC(=O)O)C(=O)N[C@@H](Cc2c[nH]c3ccccc23)C(=O)N[C@@H](CC(C)C)C(=O)N[C@@H](Cc2ccc(-c3ccccc3)cc2)C(=O)N[C@@H](C(C)C)C(=O)N(C)[C@@H](C)C(=O)N[C@H](CC(C)C)C(=O)N[C@@H](CCN)C(=O)N[C@@H](CC2CCCCC2)C(=O)N[C@@H](C(C)C)C(=O)N[C@@H](CO)C(=O)N1)C(=O)O)C(N)=O [Compound 1645] ({CH2CO}-Y(Carboxymethyl)[4Pal]DWL[Bip]V[NMeA][dL][Dab][Cha]VSC[βAsp][Pra]-NH2; thioether N-14) | 0.01 µM
5 | Cc1cccc(C[C@@H]2NC(=O)[C@H](CC(=O)O)NC(=O)[C@H](Cc3ccc(OCC(=O)O)cc3)NC(=O)[C@H](CN)NC(=O)CSC[C@@H](C(N)=O)NC(=O)[C@H](CCCN)NC(=O)[C@H](C(C)C)NC(=O)[C@H](CC3CCCCC3)NC(=O)[C@H](CCN)NC(=O)[C@@H](CC(C)C)NC(=O)[C@H](C)N(C)C(=O)[C@H](Cc3ccc(OCC(=O)O)cc3)NC(=O)[C@H](Cc3ccc(-c4ccccc4)cc3)NC(=O)[C@H](Cc3ccc(OCC(=O)O)cc3)NC2=O)c1 [Compound 1646] ({CH2CO}-[Dap]Y(Carboxymethyl)D[Phe(3-Me)]Y(Carboxymethyl)[Bip]Y(Carboxymethyl)[NMeA][dL][Dab][Cha]V[Orn]C-NH2; thioether N-14) | 0.03 µM
6 | Cc1cccc(C[C@@H]2NC(=O)[C@H](CC(=O)O)NC(=O)[C@H](Cc3ccc(OCC(=O)O)cc3)NC(=O)[C@H](CN)NC(=O)CSC[C@@H](C(N)=O)NC(=O)[C@H](CC(N)=O)NC(=O)[C@H](C(C)C)NC(=O)[C@H](CC3CCCCC3)NC(=O)[C@H](CCN)NC(=O)[C@@H](CC(C)C)NC(=O)[C@H](C)N(C)C(=O)[C@H](Cc3ccc(OCC(=O)O)cc3)NC(=O)[C@H](Cc3ccc(-c4ccccc4)cc3)NC(=O)[C@H](Cc3ccc(OCC(=O)O)cc3)NC2=O)c1 [Compound 1647] ({CH2CO}-[Dap]Y(Carboxymethyl)D[Phe(3-Me)]Y(Carboxymethyl)[Bip]Y(Carboxymethyl)[NMeA][dL][Dab][Cha]VNC-NH2; thioether N-14) | 0.04 µM
7 | Cc1cccc(C[C@@H]2NC(=O)[C@H](CC(=O)O)NC(=O)[C@H](Cc3ccc(OCC(=O)O)cc3)NC(=O)[C@H](CN)NC(=O)CSC[C@@H](C(N)=O)NC(=O)[C@H](CC(N)=O)NC(=O)[C@H](C(C)C)NC(=O)[C@H](CC3CCCCC3)NC(=O)[C@H](CCN)NC(=O)[C@@H](CC(C)C)NC(=O)[C@H](C)N(C)C(=O)[C@H](Cc3ccc(OCC(=O)O)cc3)NC(=O)[C@H](Cc3ccc(-c4ccccc4)cc3)NC(=O)[C@H](Cc3ccc(OCC(=O)O)cc3)NC2=O)c1 [Compound 1648] ({CH2CO}-[Dap]Y(Carboxymethyl)D[Phe(3-Me)]Y(Carboxymethyl)[Bip]Y(Carboxymethyl)[NMeA][dL][Dab][Cha]VNC-NH2; thioether N-14) | 0.03 µM
8 | Cc1cccc(C[C@@H]2NC(=O)[C@H](CC(=O)O)NC(=O)[C@H](Cc3ccc(OCC(=O)O)cc3)NC(=O)[C@H](CN)NC(=O)CSC[C@@H](C(N)=O)NC(=O)[C@H]([C@@H](C)O)NC(=O)[C@H](C(C)C)NC(=O)[C@H](CC3CCCCC3)NC(=O)[C@H](CCN)NC(=O)[C@@H](CC(C)C)NC(=O)[C@H](C)N(C)C(=O)[C@H](Cc3ccc(OCC(=O)O)cc3)NC(=O)[C@H](Cc3ccc(-c4ccccc4)cc3)NC(=O)[C@H](Cc3ccc(OCC(=O)O)cc3)NC2=O)c1 [Compound 1650] ({CH2CO}-[Dap]Y(Carboxymethyl)D[Phe(3-Me)]Y(Carboxymethyl)[Bip]Y(Carboxymethyl)[NMeA][dL][Dab][Cha]VTC-NH2; thioether N-14) | 0.08 µM
9 | Cc1cccc(C[C@@H]2NC(=O)[C@H](CC(=O)O)NC(=O)[C@H](Cc3ccc(OCC(=O)O)cc3)NC(=O)[C@H](CN)NC(=O)CSC[C@@H](C(N)=O)NC(=O)[C@H](CCC(=O)O)NC(=O)[C@H](C(C)C)NC(=O)[C@H](CC3CCCCC3)NC(=O)[C@H](CCN)NC(=O)[C@@H](CC(C)C)NC(=O)[C@H](C)N(C)C(=O)[C@H](Cc3ccc(OCC(=O)O)cc3)NC(=O)[C@H](Cc3ccc(-c4ccccc4)cc3)NC(=O)[C@H](Cc3ccc(OCC(=O)O)cc3)NC2=O)c1 [Compound 1651] ({CH2CO}-[Dap]Y(Carboxymethyl)D[Phe(3-Me)]Y(Carboxymethyl)[Bip]Y(Carboxymethyl)[NMeA][dL][Dab][Cha]VEC-NH2; thioether N-14) | 0.1 µM

Continued, values first:

Row | IC50 | SMILES
10 | 0.07 µM | CC[C@@H](C)[C@@H]1NC(=O)[C@H](Cc2ccc(-c3ccccc3)cc2)NC(=O)[C@H](CC(C)C)NC(=O)[C@H](Cc2cccc(C)c2)NC(=O)[C@H](CC(=O)O)NC(=O)[C@H](Cc2ccncc2)NC(=O)[C@H](Cc2ccc(OCC(=O)O)cc2)NC(=O)CSC[C@@H](C(N)=O)NC(=O)[C@H](CO)NC(=O)[C@H](C(C)C)NC(=O)[C@H](CC(C)C)NC(=O)[C@H](CC(N)=O)NC(=O)[C@@H](CC(C)C)NC(=O)[C@H](C)N(C)C1=O [Compound 1638] ({CH2CO}-Y(Carboxymethyl)[4Pal]D[Phe(3-Me)]L[Bip][aIle][NMeA][dL]NLVSC-NH2; thioether N-14)
11 | 0.1 µM | CC[C@@H](C)[C@@H]1NC(=O)[C@H](Cc2ccc(-c3ccccc3)cc2)NC(=O)[C@H](CC(C)C)NC(=O)[C@H](Cc2cccc(C)c2)NC(=O)[C@H](CC(=O)O)NC(=O)[C@H](Cc2ccc(OCC(=O)O)cc2)NC(=O)[C@H](CN)NC(=O)CSC[C@@H](C(N)=O)NC(=O)[C@H](CO)NC(=O)[C@H](C(C)C)NC(=O)[C@H](CC(C)C)NC(=O)[C@H](CC(N)=O)NC(=O)[C@@H](CC(C)C)NC(=O)[C@H](C)N(C)C1=O [Compound 1640] ({CH2CO}-[Dap]Y(Carboxymethyl)D[Phe(3-Me)]L[Bip][aIle][NMeA][dL]NLVSC-NH2; thioether N-14)
12 | 0.14 µM | Cc1cccc(C[C@@H]2NC(=O)[C@H](CC(=O)O)NC(=O)[C@H](Cc3ccc(O)cc3)NC(=O)[C@H](CC(N)=O)NC(=O)CSC[C@@H](C(N)=O)NC(=O)[C@H]([C@@H](C)O)NC(=O)[C@H](C(C)C)NC(=O)[C@H](CC(C)C)NC(=O)[C@H](CCN)NC(=O)[C@@H](CC(C)C)NC(=O)[C@H](C)N(C)C(=O)[C@H](CCCNC(N)=O)NC(=O)[C@H](Cc3ccc(-c4ccccc4)cc3)NC(=O)[C@H](C(C)C)NC2=O)c1 [Compound 1641] ({CH2CO}-NYD[Phe(3-Me)]V[Bip][Cit][NMeA][dL][Dab]LVTC-NH2; thioether N-14)
13 | 0.08 µM | Cc1cccc(C[C@@H]2NC(=O)[C@H](CC(=O)O)NC(=O)[C@H](Cc3ccc(C(=O)O)cc3)NC(=O)[C@H](Cc3ccc(OCC(=O)O)cc3)NC(=O)CSC[C@@H](C(N)=O)NC(=O)[C@H](CO)NC(=O)[C@H](C(C)C)NC(=O)[C@H](CC(C)C)NC(=O)[C@H](CC(N)=O)NC(=O)[C@@H](CC(C)C)NC(=O)[C@H](C)N(C)C(=O)[C@H](CCCNC(N)=O)NC(=O)[C@H](Cc3ccc(-c4ccccc4)cc3)NC(=O)[C@H](CC(C)C)NC2=O)c1 [Compound 1643] ({CH2CO}-Y(Carboxymethyl)[Phe(4-COOH)]D[Phe(3-Me)]L[Bip][Cit][NMeA][dL]NLVSC-NH2; thioether N-14)
14 | 0.1 µM | Cc1cccc(C[C@@H]2NC(=O)[C@H](CC(=O)O)NC(=O)[C@H](Cc3ccc(OCC(=O)O)cc3)NC(=O)[C@H](CN)NC(=O)CSC[C@@H](C(N)=O)NC(=O)[C@H](CCC(N)=O)NC(=O)[C@H](C(C)C)NC(=O)[C@H](CC3CCCCC3)NC(=O)[C@H](CCN)NC(=O)[C@@H](CC(C)C)NC(=O)[C@H](C)N(C)C(=O)[C@H](Cc3ccc(OCC(=O)O)cc3)NC(=O)[C@H](Cc3ccc(-c4ccccc4)cc3)NC(=O)[C@H](Cc3ccc(OCC(=O)O)cc3)NC2=O)c1 [Compound 1649] ({CH2CO}-[Dap]Y(Carboxymethyl)D[Phe(3-Me)]Y(Carboxymethyl)[Bip]Y(Carboxymethyl)[NMeA][dL][Dab][Cha]VQC-NH2; thioether N-14)
